Data reported in ChEMBL document CHEMBL1649426 (J Med Chem, 2011).

Legend:
Protease = Protease (Human immunodeficiency virus 1, UniProt Q9YQ12); test: Inhibition of HIV1 protease; type: single protein
[1] = tested on: Human immunodeficiency virus 1; test: Antiviral activity against HIV1 LAI infected in human MT2 cells assessed as inhibition of virus-induced cytopathic effect by MTT assay; type: functional, organism-based; settings: Human immunodeficiency virus 1, LAI
[2] = tested on: Human immunodeficiency virus 1; test: Antiviral activity against HIV-1 MDR/B infected in human PHA-PBM cells assessed as inhibition of p24 Gag protein production; type: functional, organism-based; settings: Human immunodeficiency virus 1, MDR/B, PBMC
[3] = tested on: Human immunodeficiency virus 1; test: Antiviral activity against HIV-1 MDR/G infected in human PHA-PBM cells assessed as inhibition of p24 Gag protein production; type: functional, organism-based; settings: Human immunodeficiency virus 1, MDR/G, PBMC
[4] = tested on: Human immunodeficiency virus 1; test: Antiviral activity against HIV-1 MDR/TM infected in human PHA-PBM cells assessed as inhibition of p24 Gag protein production; type: functional, organism-based; settings: Human immunodeficiency virus 1, MDR/TM, PBMC
[5] = tested on: Human immunodeficiency virus 1; test: Antiviral activity against HIV-1 MDR/C infected in human PHA-PBM cells assessed as inhibition of p24 Gag protein production; type: functional, organism-based; settings: Human immunodeficiency virus 1, MDR/C, PBMC
[6] = tested on: Human immunodeficiency virus 1; test: Antiviral activity against wild type HIV-1 ERS104 pre infected in human PHA-PBM cells assessed as inhibition of p24 Gag protein production; type: functional, organism-based; settings: Human immunodeficiency virus 1, ERS104pre, PBMC
[7] = tested on: Human immunodeficiency virus 1; test: Antiviral activity against HIV-1 MDR/MM infected in human PHA-PBM cells assessed as inhibition of p24 Gag protein production; type: functional, organism-based; settings: Human immunodeficiency virus 1, MDR/MM, PBMC
[8] = tested on: Human immunodeficiency virus 1; test: Antiviral activity against HIV-1 MDR/JSL infected in human PHA-PBM cells assessed as inhibition of p24 Gag protein production; type: functional, organism-based; settings: Human immunodeficiency virus 1, MDR/JSL, PBMC

Sequence of Protease (Q9YQ12 whole entry): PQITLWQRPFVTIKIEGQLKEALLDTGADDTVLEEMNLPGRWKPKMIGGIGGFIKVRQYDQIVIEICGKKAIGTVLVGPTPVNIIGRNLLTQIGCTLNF

SMILES	Ki (Protease) [nM]	IC50 [1] [nM]	further results
COc1ccc(S(=O)(=O)N(CC(C)C)C[C@@H](O)[C@H](Cc2ccccc2)NC(=O)O[C@H]2CCO[C@H]3COC[C@H]32)cc1	5.3	> 1000	–
CC(C)CN(C[C@@H](O)[C@H](Cc1ccccc1)NC(=O)O[C@H]1CCOC1)S(=O)(=O)c1ccc(N)cc1	–	30	–
CC(C)CN(C[C@@H](O)[C@H](Cc1ccccc1)NC(=O)O[C@H]1CCO[C@H]2OCC[C@H]21)S(=O)(=O)c1ccc(CO)cc1	0.085	4.5	–
COc1ccc(S(=O)(=O)N(CC(C)C)C[C@@H](O)[C@H](Cc2ccccc2)NC(=O)O[C@H]2CCC[C@H]3OCC[C@@H]23)cc1	0.005	8	–
COc1ccc(S(=O)(=O)N(CC(C)C)C[C@@H](O)[C@H](Cc2ccccc2)NC(=O)O[C@H]2CCO[C@H]3OCC[C@H]32)cc1	0.0027	0.5	EC50 [2]: 14.5 nM; EC50 [3]: 2.6 nM; EC50 [4]: 27.5 nM; EC50 [5]: 3.7 nM; EC50 [6]: 1.9 nM; EC50 [7]: 5 nM; EC50 [8]: 27.5 nM
COc1ccc(S(=O)(=O)N(CC(C)C)C[C@@H](O)[C@H](Cc2ccccc2)NC(=O)O[C@H]2CO[C@H]3OCC[C@H]3C2)cc1	0.11	–	–
COc1ccc(S(=O)(=O)N(CC(C)C)C[C@@H](O)[C@H](Cc2ccccc2)NC(=O)O[C@H]2CCC[C@H]3CCC[C@H]32)cc1	9	> 1000	–
COc1ccc(S(=O)(=O)N(CC(C)C)C[C@@H](O)[C@H](Cc2ccccc2)NC(=O)O[C@H]2CCO[C@H]3CCC[C@H]32)cc1	1.43	–	–
CC(C)(C)NC(=O)[C@@H]1C[C@@H]2CCCC[C@@H]2CN1C[C@@H](O)[C@H](Cc1ccccc1)NC(=O)[C@H](CC(N)=O)NC(=O)c1ccc2ccccc2n1	–	15	–
COc1ccc(S(=O)(=O)N(CC(C)C)C[C@@H](O)[C@H](Cc2ccccc2)NC(=O)O[C@@H]2CCO[C@@H]3OCC[C@@H]32)cc1	0.068	19	–
CC(C)CN(C[C@@H](O)[C@H](Cc1ccccc1)NC(=O)O[C@H]1CCO[C@H]2OCC[C@H]21)S(=O)(=O)c1ccc(N)cc1	0.01	6.5	–
COC(=O)N[C@H](C(=O)N[C@@H](Cc1ccccc1)[C@@H](O)CN(Cc1ccc(-c2ccccn2)cc1)NC(=O)[C@@H](NC(=O)OC)C(C)(C)C)C(C)(C)C [ATAZANAVIR]	–	–	EC50 [2]: 470 nM; EC50 [3]: 19 nM; EC50 [4]: 75 nM; EC50 [5]: 39 nM; EC50 [6]: 2.7 nM; EC50 [7]: 205 nM; EC50 [8]: 293 nM
Cc1cccc(C)c1OCC(=O)N[C@@H](Cc1ccccc1)[C@@H](O)C[C@H](Cc1ccccc1)NC(=O)[C@H](C(C)C)N1CCCNC1=O [LOPINAVIR]	–	–	EC50 [2]: > 1000 nM; EC50 [8]: > 1000 nM
